Laboratory results taken from PubChem BioAssay (NCI).
Several values for one entry are separate records, joined by “and”; a condition that tells them apart may be missing. Equal values may be shown once.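 The compound was tested at five concentrations on cells cultured in 96-well plates, with a 48-hour exposure period. GI50 is the concentration that inhibits growth by half. TGI: concentration producing complete growth inhibition.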

Assays:
Assay in all cases: NCI-60 cell line screen, 48 h
M14 melanoma = tested on: M14 melanoma
HT29 colon = tested on: HT29 colon
MALME-3M melanoma = tested on: MALME-3M melanoma
XF 498 CNS = tested on: XF 498 CNS
OVCAR-3 ovarian = tested on: OVCAR-3 ovarian
MOLT-4 leukemia = tested on: MOLT-4 leukemia
PC-3 prostate = tested on: PC-3 prostate
T-47D breast = tested on: T-47D breast
HS 578T breast = tested on: HS 578T breast
MDA-MB-435 = tested on: MDA-MB-435

| Compound | TGI (M14 melanoma) [µM] | TGI (HT29 colon) | TGI (MALME-3M melanoma) [µM] | TGI (XF 498 CNS) | TGI (OVCAR-3 ovarian) | TGI (MOLT-4 leukemia) [µM] | TGI (PC-3 prostate) [µM] | TGI (T-47D breast) [µM] | GI50 (HT29 colon) [nM] | TGI (HS 578T breast) [µM] | GI50 (MALME-3M melanoma) [nM] | TGI (MDA-MB-435) [µM] | GI50 (XF 498 CNS) [nM] | GI50 (MOLT-4 leukemia) [nM] | GI50 (OVCAR-3 ovarian) [nM] | GI50 (PC-3 prostate) [nM] | GI50 (M14 melanoma) [nM] | GI50 (T-47D breast) [µM] | GI50 (HS 578T breast) [nM] | GI50 (MDA-MB-435) [nM] |
| --- | --- | --- | --- | --- | --- | --- | --- | --- | --- | --- | --- | --- | --- | --- | --- | --- | --- | --- | --- | --- |
| COC(=O)c1c(CC(=O)OC(C)C)cc2n(c1=O)Cc1c-2nc2ccccc2c1OC | > 100 | > 100 µM | > 100 | > 100 µM | > 100 µM | > 100 | – | – | – | – | – | – | – | – | – | – | – | – | – | – |
| NCCCNCCSP(=O)(O)O | – | > 750 µM | > 726 | > 422 µM | > 750 µM | > 750 | – | – | – | – | – | – | – | – | – | – | – | – | – | – |
| C/C(N=NS(=O)(=O)c1c(C)cc(C)cc1C)=C1\C=CC=CN1O | > 100 | > 100 µM | – | > 100 µM | > 100 µM | > 100 | – | – | – | – | – | – | – | – | – | – | – | – | – | – |
| CC(C)=CC(=O)OC1C2C(C)=CC(=O)C(O)C2(C)C2C3(O)OCC24C(CC(=O)OC14)C(C)C3O (stereo not given) | 0.00826 | 0.0449 µM and 0.0146 µM and 0.137 µM | 0.0136 | 0.0217 µM and 0.0556 µM | 0.0226 µM and 0.0354 µM | – | 0.0129 | 0.0108 | 30.2 | 0.00523 | 4.75 | 0.0103 | 5.43 | 20 | – | – | – | – | – | – |
| CSCSCC(CO)NC(=O)/C=C\c1c(C)[nH]c(=O)[nH]c1=O (stereo not given) | – | 270 µM | 76.6 | 9.99 µM | 14 µM | 59.1 | – | – | – | – | – | – | – | – | 1410 | – | – | – | – | – |
| CN1COCN=C1NC#N | > 100 | > 100 µM | > 100 | > 100 µM | > 100 µM | > 100 | – | – | – | – | – | – | – | – | – | – | – | – | – | – |
| CC(C)(C)OC(=O)NCC(c1c[nH]c2ccccc12)c1c[nH]c2ccccc12 | 29.1 | 29.8 µM | 33.2 | – | 30.6 µM | 29.9 | 29.5 | 36.5 | – | 57.8 | – | 31.7 | – | – | – | – | – | – | – | – |
| COc1ccc(N=C(C)C(C)=Nc2ccc(OC)cc2)cc1 | > 100 | > 100 µM | > 100 | – | > 100 µM | > 100 | > 100 | > 100 | – | > 100 | – | > 100 | – | – | – | – | – | – | – | – |
| C[C@@H]1C[C@@H]2OC(=O)[C@]3(C)[C@H]2[C@@H](OC3(C)O)[C@]2(C)C(=O)C=C[C@@H]12 (stereo not given in full) | 41.8 | 35.1 µM | 30.7 | – | 44.3 µM | 39.7 | > 100 | 44.5 | – | > 100 | – | 66.9 | – | – | – | – | – | – | – | – |
| O=C(NCc1cn(Cc2cccc(Oc3ccccc3)c2)nn1)c1cccnc1NCc1ccc(Cl)cc1 | 5.7 | 7.56 µM | > 100 | – | 9.55 µM | 8.76 | > 100 | 42.9 | 2960 | > 100 | 5690 | 7.37 | – | 3280 | 3480 | 2960 | 2490 | 3.2 | 2720 | 2330 |
| C=C1C(=O)OC2C[C@@]3(C)CCCC(=C)C3CC12 (stereo not given in full) | 20.6 | 24 µM | 13.4 | 13.5 µM | 22.6 µM | – | – | – | – | – | – | – | – | – | – | – | – | – | – | – |
| COc1c(NC(C)=O)c2ccccc2c2ccccc12 | > 100 | > 100 µM | > 100 | – | > 100 µM | > 100 | > 100 | > 100 | – | > 100 | – | > 100 | – | – | – | – | – | – | – | – |
